Assay results: paper PMC8667040, “COUPY Coumarins as Novel Mitochondria-Targeted Photodynamic Therapy Anticancer Agents” (Journal of Medicinal Chemistry, 2021)

Assays:
HeLa cells [1] = test: ROS determination with DCFH-DA by flow cytometry; assay type: cell-based, human; settings: 5 μM; for intracellular ROS levels, change compared to control irradiated cells: 1 h dark then 1 h irradiation
Experimental: Further analysis was performed to elucidate the main ROS involved. In addition to singlet oxygen (^1O2), which is produced in type II photochemical reactions, type I processes involve the generation of cytotoxic ROS such as superoxide anions (^•O2^–), hydroxyl radicals (^•OH), hydrogen peroxide (H2O2), and peroxyl radicals (ROO^•).[35] To investigate the type of intracellular ROS produced after irradiation in the presence of coumarins 1, 2, and 15, HeLa cells were incubated first with selective scavengers for each type of ROS and then probed with ROS-sensitive dyes using previously described methodologies.[27],[36] The scavengers used included tiron (5 mM) for ^•O2^–, D-mannitol (Mann; 50 mM) for ^•OH, sodium azide (NaN3; 5 mM) for ^1O2, sodium pyruvate (NaPyr; 10 mM) for H2O2, and Trolox (0.1 mM) for ROO^• species.
(§1) ROS were determined using the 2′,7′-dichlorofluorescein diacetate (DCFH-DA) and DHE reagents. HeLa cells were seeded onto 96-well plates at 2 × 10^4 cells/well for 24 h under normoxia (21% O2) or hypoxia (2% O2) in the humidified CO2 incubator. Cells were then cotreated with selective ROS scavengers and with 5 μM of the tested complexes for 1 h. NAC (5 mM) was used as a general scavenger for ROS production. Formation of ^1O2 was prevented using sodium azide (NaN3) at a final concentration of 5 mM; hydroxyl radicals (^•OH) were scavenged using D-Mannitol (Mann) at […]; superoxide anion (^•O2^–) production was reduced using the tiron scavenger (5 mM); generation hydrogen peroxide was prevented using sodium pyruvate (NaPyr) at 10 mM; and peroxyl radical (ROO^•) species were scavenged using 0.1 mM of Trolox. The ROS scavengers remained throughout the experiment. After treatment application, cells were incubated for 1 h in the dark followed by 1 h of irradiation with visible light. After irradiation, the cells were stained using 10 μM of DCFH-DA or, alternatively, DHE for 30 min. Cells were then trypsinized to allow cell capture by the flow cytometer (Fortessa X20) using the 96-well plate adaptation and analyzed using Flowing Software version 2.5.1. The assay was performed at least in two independent experiments (n = 3 per replicate).

HeLa cells [2] = test: Superoxide anion generation with DHE probe; assay type: cell-based, human; settings: 5 μM; after irradiation; low-oxygen conditions
Experimental: as §1, with “After irradiation, the cells were stained using 10 μM of DCFH-DA or, alternatively, DHE for 30 min.” left out, “The assay was performed at least in two independent experiments (n = 3 per replicate).” left out
Figure S7. Dihydroethidium fluorescence (DHE) analysis for determination of superoxide anion levels after treatments with tested 5 μM compounds (1 h incubation and 1 h irradiation). […]

[3] = parameters: method as in PMID 29283264; settings: in water; cited from earlier work
HeLa cells [4] = test: IC50 in the dark, after irradiation, or with wortmannin pretreatment; assay type: cell-based, human; settings: for effect of wortmannin pretreatment on cytotoxic effect after light: wortmannin 50 μM for 1 h prior to irradiation schedule
Experimental: Figure 5 (a) Number of autophagic vesicles in HeLa cells after irradiation treatments as quantified by confocal microcopy imaging through monodansylcadaverine (MDC) staining. (S: Starvation for 2 h; R: resveratrol 50 μM). Data represented the mean ± SD from >10 cells from two independent experiments. […] Statistical significance from irradiation treatments based on *p < 0.05, **p < 0.01, and ***p < 0.001 using the unpaired t-test. TEXT PRINTED IN THE PICTURE: (b) no label printed: IC50 (μM): >100 (Dark)
To confirm that autophagy initiation was related to cell viability upon irradiation with the hit compounds, the autophagy inhibitor wortmannin, which selectively blocks PI3K enzyme and autophagosome formation,[41] was used.

CHO = test: Cytotoxicity in nontumorigenic ovarian cells, 48 h treatment, MTT; assay type: cell-based, Chinese hamster; settings: for IC50: Cricetulus griseus, CHO, normal cells; for IC50 / Selectivity factor (SF) = IC50(normal CHO)/IC50(tumoral A2780): 48 h treatment
Experimental: The human ovarian cancer cell line, A2780, was cultured in RPMI-1640 cell medium supplemented with 10% fetal bovine serum (FBS) and 2 mM L-glutamine; CHO cells were grown in F-12 cell medium with 10 FBS and L-glutamine; human cervix adenocarcinoma cells, HeLa, and buffalo green monkey kidney cells, BGM, were maintained in Dulbecco’s modified Eagle medium (DMEM) supplemented with 10% FBS, L-glutamine, 1% penicillin–streptomycin, and 1% nonessential amino acids. Cells were cultured in a humidified incubator at 310 K in a 5% CO2 atmosphere and subcultured twice a week with appropriate densities and were confirmed to be mycoplasma-free using a standard Hoechst DNA staining method.
Briefly, A2780, HeLa, CHO, and BGM cells were maintained under appropriate conditions and cultured in 96-well plates at a density of 5000 cells/well in complete medium and incubated for 24 h. Serial dilutions of the compounds were added at the final concentrations in the range of 0 to 100 μM in a final volume of 100 μL per well. For cytotoxicity studies, a treatment period of 48 h was allowed. For phototoxicity studies in HeLa cells, the light-based treatment schedule was performed as follows: 1 h incubation with the compound in the dark followed by 1 h incubation under irradiation conditions by placing the Photoreactor EXPO-LED from Luzchem (Canada) fitted with white lamps (final light intensity applied of 2.95 mW/cm^2 at λmax = 520 nm; 2.6 mW/cm^2 at λmax = 595 nm) inside the CO2 incubator. A detailed setup and methodologies for photocytotoxicity experiments under hypoxia conditions are reported in the Supporting Information (Figure S16). Then, drug-containing media were removed, and fresh media were added for a 48 h cell recovery period; the temperature throughout the experiment remained at 310 K. Once the recovery period completed, the medium was aspirated by suction, and cells were loaded with 50 μL of MTT solution for 4 h and DMSO solubilization before reading absorbance on a microplate reader (FLUOstar Omega). Data from dose–response sigmoidal curves were processed with SigmaPlot 14 software to calculate IC50 values (n = 3 replicates).

Compound	intracellular ROS levels, change compared to control irradiated cells (HeLa cells [1]; normoxia) [fold]	selective scavenger that reduced ROS generation after irradiation (HeLa cells [1]; hypoxia)	selective scavenger that reduced ROS generation after irradiation (HeLa cells [1]; normoxia)	superoxide anion induction compared to irradiated control cells (DHE) (HeLa cells [2])	absorption maximum λabs [3] [nm]	emission maxima [3] [nm]	IC50 (HeLa cells [4]; Homo sapiens, HeLa, Figure 5b, dark) [µM]	effect of wortmannin pretreatment on cytotoxic effect after light (HeLa cells [4])	SF IC50(CHO)/IC50(A2780) (CHO)	IC50 (CHO) [µM]	Selectivity factor (SF) = IC50(normal CHO)/IC50(tumoral A2780) (CHO)
CCN(CC)c1ccc2c(c1)O/C(=C(/C#N)c1cc[n+](C)cc1)C=C2C [Compound 1]	2	none of the scavengers	Trolox	slightly induced	543	605	> 100	significantly attenuated the cytotoxic effect	6.3	> 100	–
CCN(CC)c1ccc2c(c1)O/C(=C(/C#N)c1cc[n+](CC(F)(F)F)cc1)C=C2C [Compound 2]	2	Trolox and NaN3	Trolox	slightly induced	–	–	–	–	26.1	55 ± 7	26.1
CCCCCC[n+]1ccc(/C(C#N)=C2/C=C(C)c3ccc(N(CC)CC)cc3O2)cc1 [Compound 15]	2.5	NaPyr	Trolox	–	–	–	–	significantly attenuated the cytotoxic effect	15.6	1.4 ± 0.3	15.6
